The text below walks through data of patent publication US20150266857A1, “NOVEL 3-INDOL SUBSTITUTED DERIVATIVES, PHARMACEUTICAL COMPOSITIONS AND METHODS FOR USE” (iTeos Therapeutics, priority 2014, published 2015).

Counter-ions that a name gives are not always drawn.

For this assay, the target named is T1, human glioblastoma A172 cells, naturally expressing hTDO2 (Homo sapiens, UniProt P48775).
T1 construct: human glioblastoma A172 cells, naturally expressing hTDO2; endogenous in cells; host or cells: human glioblastoma A172 cells (ATCC CRL-1620)
T1 sequence (P48775 whole entry): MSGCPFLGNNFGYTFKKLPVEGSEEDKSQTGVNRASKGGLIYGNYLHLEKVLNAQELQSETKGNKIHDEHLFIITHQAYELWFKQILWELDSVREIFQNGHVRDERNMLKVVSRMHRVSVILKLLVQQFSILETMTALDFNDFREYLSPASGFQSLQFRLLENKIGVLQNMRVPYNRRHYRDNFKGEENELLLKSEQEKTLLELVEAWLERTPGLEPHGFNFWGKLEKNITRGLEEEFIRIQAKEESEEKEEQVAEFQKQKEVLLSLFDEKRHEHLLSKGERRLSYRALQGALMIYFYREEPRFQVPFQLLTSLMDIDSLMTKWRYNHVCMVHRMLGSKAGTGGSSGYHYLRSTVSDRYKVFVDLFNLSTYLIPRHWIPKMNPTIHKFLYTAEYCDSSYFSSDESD
Nature of the assay: Cellular assay for TDO2 activity, A172 cells. Type of assay: cell-based. Conditions: overnight incubation, kynurenine in supernatant. The protocol: The compounds of formula I inhibit the activity of human TDO2 in cells that constitutively express TDO2, such as A172 cells. A172 is a cell line derived from human brain glioblastoma cells. The cells are available from the American Type Culture Collection (ATCC®) as CRL-1620™
The assay (adapted from Pilotte L et al., Proc Natl Acad Sci USA, 2012, 109(7), 2497-502) was performed in 96-well flat bottom plates seeded with human glioblastoma A172 cells, naturally expressing hTDO2 (prepared as described in Tilman et al., Mol Cancer, 2007, 17(6), 80), at a concentration of 1.25×10^4 cells/well in a final volume of 200 μL. To determine TDO, the cells were incubated overnight at 37° C. at 5% CO2 in IMDM (Invitrogen) supplemented with 2% FBS and 2% penicillin/streptomycin in the presence of the compounds of the present invention, at different concentrations.
The plates were then centrifuged 5 min at 1000 rpm, and 100 μL of the supernatant were collected in a conical plate, 30 uL of TCA 30% were added and a further centrifugated at 3000×g for 10 minutes. 100 μL of the supernatant were collected in a flat bottomed plate and 100 μL of 2% (w/v) 4-(dimethylamino)-benzaldehyde in acetic acid and incubated for 5 min at room temperature. Kynurenine concentrations were determined by measuring the absorbance at 480 nm. A standard curve was made with pure kynurenine. The TDO activity was measured as described above using ten serial concentrations of the compounds of the present invention. Data were fitted using the Prism™ software (GraphPad Software, Inc.) using standard parameters.
In general, IC50 refers to the concentration that inhibits the measured activity by half. Read a low IC50 as inhibition by little substance. `C[C@@H]1CN[C@@H](C)CN1CCc1nc2ccc(-c3c[nH]c4cc(F)ccc34)cc2o1` (relative stereo) [Compound 141, 2-(2-(trans-2,5-dimethylpiperazin-1-yl)ethyl)-6-(6-fluoro-1H-indol-3-yl)benzo[d]oxazole] registered an IC50 of 340 nM.

The compound `Nc1nc2ccc(-c3c[nH]c4cc(F)ccc34)cc2[nH]1` [Compound 41, 6-(6-fluoro-1H-indol-3-yl)-1H-benzo[d]imidazol-2-amine] had an IC50 of 1090 nM.

Compound `Fc1ccc2c(-c3ccc4nc(C5CCNCC5)oc4c3)c[nH]c2c1` [Compound 55, 6-(6-fluoro-1H-indol-3-yl)-2-(piperidin-4-yl)benzo[d]oxazole] registered a concentration for half-maximal inhibition (IC50) of 171 nM.

With `CC(=O)N1CCC(c2nc3ccc(-c4c[nH]c5cc(F)ccc45)cc3o2)CC1` [Compound 56, 1-(4-(6-(6-fluoro-1H-indol-3-yl)benzo[d]oxazol-2-yl)piperidin-1-yl)ethanone], the IC50 worked out at 311 nM.

`CS(=O)(=O)Nc1nc2ccc(-c3c[nH]c4cc(F)ccc34)cc2o1` [Compound 58, N-(6-(6-fluoro-1H-indol-3-yl)benzo[d]oxazol-2-yl)methanesulfonamide]: the IC50 is 3770 nM.

In the case of `Fc1ccc2c(-c3ccc4oc(CN5CCNCC5)nc4c3)c[nH]c2c1` [Compound 61, 5-(6-fluoro-1H-indol-3-yl)-2-(piperazin-1-ylmethyl)benzo[d]oxazole], the midpoint of inhibition, the IC50, lay at 459 nM.

`Fc1ccc2c(-c3ccc4oc(CN5CCOCC5)nc4c3)c[nH]c2c1` [Compound 63, 5-(6-fluoro-1H-indol-3-yl)-2-(morpholinomethyl)benzo[d]oxazole] came in with an IC50 of 597 nM.

`NC(=O)CCn1c(=O)oc2cc(-c3c[nH]c4cc(F)ccc34)ccc21` [Compound 67, 3-(6-(6-fluoro-1H-indol-3-yl)-2-oxobenzo[d]oxazol-3(2H)-yl)propanamide] had an IC50 of 2520 nM.

Consider `NC(=O)Cn1c(=O)oc2ccc(-c3c[nH]c4cc(F)ccc34)cc21` [Compound 69, 2-(5-(6-fluoro-1H-indol-3-yl)-2-oxobenzo[d]oxazol-3(2H)-yl)acetamide], for which the midpoint of inhibition, the IC50, lay at 3280 nM.

`NC(=O)CCn1c(=O)oc2ccc(-c3c[nH]c4cc(F)ccc34)cc21` [Compound 71] yielded an IC50 of 3530 nM.

`Fc1ccc2c(-c3ccc4sccc4c3)c[nH]c2c1` [Compound 72, 3-(benzo[b]thiophen-5-yl)-6-fluoro-1H-indole] yielded an IC50 of 442 nM.

`CC(=O)NCc1nc2cc(-c3c[nH]c4cc(F)ccc34)ccc2o1` [Compound 73, N-((5-(6-fluoro-1H-indol-3-yl)benzo[d]oxazol-2-yl)methyl)acetamide] showed a half-maximal inhibitory concentration (IC50) of 363 nM.

`NCc1nc2ccc(-c3c[nH]c4cc(F)ccc34)cc2o1` [Compound 76, (6-(6-fluoro-1H-indol-3-yl)benzo[d]oxazol-2-yl)methanamine hydrochloride]: the concentration for half-maximal inhibition (IC50) turned out to be 440 nM.

Consider `Fc1ccc2c(-c3ccc4ccsc4c3)c[nH]c2c1` [Compound 79, 3-(benzo[b]thiophen-6-yl)-6-fluoro-1H-indole], for which the concentration for half-maximal inhibition (IC50) turned out to be 802 nM.

`CS(=O)(=O)CCc1nc2cc(-c3c[nH]c4cc(F)ccc34)ccc2o1` [Compound 80, 5-(6-fluoro-1H-indol-3-yl)-2-(2-(methylsulfonyl)ethyl)benzo[d]oxazole] registered a 50% inhibitory concentration (IC50) of 842 nM.

`NCc1nc2cc(-c3c[nH]c4cc(F)ccc34)ccc2o1` [Compound 81, (5-(6-fluoro-1H-indol-3-yl)benzo[d]oxazol-2-yl)methanamine] showed an IC50 of 1620 nM.

`Fc1ccc2c(-c3ccc4occc4c3)c[nH]c2c1` [Compound 82, 3-(benzofuran-5-yl)-6-fluoro-1H-indole] returned an IC50 of 602 nM.

Consider `NC(=O)CCc1nc2ccc(-c3c[nH]c4cc(F)ccc34)cc2o1` [Compound 83, 3-(6-(6-fluoro-1H-indol-3-yl)benzo[d]oxazol-2-yl)propanamide], for which it took 154 nM to reach half-maximal inhibition (IC50).

Turning to `NC(=O)Cn1cnc2ccc(-c3c[nH]c4cc(F)ccc34)cc21` [Compound 84, 2-(6-(6-fluoro-1H-indol-3-yl)-1H-benzo[d]imidazol-1-yl)acetamide], half-maximal inhibition (IC50) required 1020 nM.

`NC(=O)Cn1cnc2cc(-c3c[nH]c4cc(F)ccc34)ccc21` [Compound 85, 2-(5-(6-fluoro-1H-indol-3-yl)-1H-benzo[d]imidazol-1-yl)acetamide]: the IC50 came to 1330 nM.

In turn, `O=C(CCn1ncc2cc(-c3c[nH]c4cc(F)ccc34)ccc21)N1CCOCC1` [Compound 86, 3-(5-(6-fluoro-1H-indol-3-yl)-1H-indazol-1-yl)-1-morpholinopropan-1-one] came in with a 50% inhibitory concentration (IC50) of 646 nM.

For the compound `CN1CCN(C(=O)CCn2ncc3cc(-c4c[nH]c5cc(F)ccc45)ccc32)CC1` [Compound 87, 3-(5-(6-fluoro-1H-indol-3-yl)-1H-indazol-1-yl)-1-(4-methylpiperazin-1-yl)propan-1-one], the IC50 came to 298 nM.

The compound `CN(C)CCNC(=O)CCn1ncc2cc(-c3c[nH]c4cc(F)ccc34)ccc21` [Compound 88, N-(2-(dimethylamino)ethyl)-3-(5-(6-fluoro-H-indol-3-yl)-1H-indazol-1-yl)propanamide] registered an IC50 of 170 nM.

In turn, `O=C(CCn1ncc2cc(-c3c[nH]c4cc(F)ccc34)ccc21)NCCO` [Compound 89, 3-(5-(6-fluoro-1H-indol-3-yl)-1H-indazol-1-yl)-N-(2-hydroxyethyl)propanamide] yielded an IC50 of 205 nM.

`CS(=O)(=O)CCNC(=O)CCn1ncc2cc(-c3c[nH]c4cc(F)ccc34)ccc21` [Compound 90, 3-(5-(6-fluoro-1H-indol-3-yl)-1H-indazol-1-yl)-N-(2-(methylsulfonyl)ethyl)propanamide] yielded a half-maximal inhibitory concentration (IC50) of 240 nM.

Take `O=C(CCn1ncc2cc(-c3c[nH]c4cc(F)ccc34)ccc21)N1CCNCC1` [Compound 91, 3-(5-(6-fluoro-1H-indol-3-yl)-1H-indazol-1-yl)-1-(piperazin-1-yl)propan-1-one]: half-maximal inhibition (IC50) required 213 nM.

On to `O=C1Cc2ccc(-c3c[nH]c4cc(F)ccc34)cc2N1` [Compound 92, 6-(6-fluoro-1H-indol-3-yl)indolin-2-one], for which the IC50 was determined as 508 nM.

`NC(=O)CCn1cnc2ccc(-c3c[nH]c4cc(F)ccc34)cc21` [Compound 93, 3-(6-(6-fluoro-1H-indol-3-yl)-1H-benzo[d]imidazol-1-yl)propanamide] had an IC50 of 1150 nM.

On to `NC(=O)CCn1cnc2cc(-c3c[nH]c4cc(F)ccc34)ccc21` [Compound 94, 3-(5-(6-fluoro-1H-indol-3-yl)-1H-benzo[d]imidazol-1-yl)propanamide], for which 4640 nM corresponded to half-maximal inhibition (IC50).

As for `COCCS(=O)(=O)NCc1nc2ccc(-c3c[nH]c4cc(F)ccc34)cc2o1` [Compound 99, N-((6-(6-fluoro-1H-indol-3-yl)benzo[d]oxazol-2-yl)methyl)-2-methoxyethanesulfonamide], the concentration for half-maximal inhibition (IC50) is 351 nM.

Take `c1ccc2c(-c3ccc4[nH]ncc4c3)c[nH]c2c1` [Compound 104, 5-(1H-indol-3-yl)-1H-indazole]: the concentration for half-maximal inhibition (IC50) came to 464 nM.

In the case of `c1ccc2c(-c3ccc4cn[nH]c4c3)c[nH]c2c1` [Compound 108, 6-(1H-indol-3-yl)-1H-indazole], inhibition was half-maximal at 599 nM (IC50).

As to `c1ccc2c(-c3ccc4ncoc4c3)c[nH]c2c1` [Compound 109, 6-(1H-indol-3-yl)benzo[d]oxazole], the IC50 amounted to 446 nM.

`Clc1ccc2c(-c3ccc4ocnc4c3)c[nH]c2c1` [Compound 111, 5-(6-chloro-1H-indol-3-yl)benzo[d]oxazole] returned an IC50 of 19000 nM.

As to `Fc1ccc2c(-c3ccc4nc(S)oc4c3)c[nH]c2c1` [Compound 112, 6-(6-fluoro-1H-indol-3-yl)benzo[d]oxazole-2-thiol], the midpoint of inhibition, the IC50, lay at 979 nM.

`Fc1ccc2c(-c3ccc4nc(CC5CCNCC5)oc4c3)c[nH]c2c1` [Compound 113, 6-(6-fluoro-1H-indol-3-yl)-2-(piperidin-4-ylmethyl)benzo[d]oxazole] gave an IC50 of 284 nM.

The compound `CS(=O)(=O)NCc1nc2ccc(-c3c[nH]c4ccccc34)cc2o1` [Compound 114, N-((6-(1H-indol-3-yl)benzo[d]oxazol-2-yl)methyl)methanesulfonamide] came in with an IC50 of 478 nM.

Take `CN1CCC[C@H]1C(=O)NCc1nc2ccc(-c3c[nH]c4cc(F)ccc34)cc2o1` [Compound 115, (S)—N-((6-(6-fluoro-1H-indol-3-yl)benzo[d]oxazol-2-yl)methyl)-1-methylpyrrolidine-2-carboxamide]: the half-inhibitory concentration (IC50) came to 349 nM.

The compound `COc1nc2ccc(-c3c[nH]c4cc(F)ccc34)cc2o1` [Compound 116, 6-(6-fluoro-1H-indol-3-yl)-2-methoxybenzo[d]oxazole] displayed a half-inhibitory concentration (IC50) of 372 nM.

The compound `NS(=O)(=O)NCc1nc2ccc(-c3c[nH]c4cc(F)ccc34)cc2o1` [Compound 117, Amino{[6-(6-fluoroindol-3-yl)benzoxazol-2-yl]methyl}sulfonamide] had an IC50 of 278 nM.

The compound `c1ccc2c(-c3ccc4ocnc4c3)c[nH]c2c1` [Compound 118, 5-(1H-indol-3-yl)benzo[d]oxazole] displayed a half-maximal inhibitory concentration (IC50) of 1530 nM.
